Laboratory results published in patent publication US20230413820A1, “HERBICIDAL N-HETEROARYL PYRAZOLE COMPOUNDS” (SYNGENTA CROP PROTECTION AG, priority 2020, published 2023).

Experiments:
Type in all cases: in vivo
[1] = tested on: Abutilon theophrasti (ABUTH); assay: Post-emergence herbicide glasshouse test; details: 250 g/ha, sprayed after 8 days cultivation, evaluated after 13 days
Protocol: (§1) Seeds of a variety of test species (Abutilon theophrasti (ABUTH), Amaranthus retoflexus (AMARE), Echinochloa crus-galli (ECHCG), Ipomoea hederacea (IPOHE), Setaria faberi (SETFA)) are sown in standard soil in pots. After cultivation for one day (pre-emergence) or after 8 days cultivation (post-emergence) under controlled conditions in a glasshouse (at 24/16° C., day/night; 14 hours light; 65% humidity), the plants are sprayed with an aqueous spray solution derived from the formulation of the technical active ingredient in acetone/water (50:50) solution containing 0.5% Tween 20 (polyoxyethelyene sorbitan monolaurate, CAS RN 9005-64-5). Compounds are applied at 250 g/ha unless otherwise stated. The test plants are then grown in a glasshouse under controlled conditions in a glasshouse (at 24/16° C., day/night; 14 hours light; 65% humidity) and watered twice daily. After 13 days for pre- and post-emergence, the test is evaluated for the percentage damage caused to the plant. The biological activities are shown in the following table on a five-point scale (5=81-100%; 4=61-80%; 3=41-60%; 2=21-40%; 1=0-20%).

[2] = tested on: Amaranthus retoflexus (AMARE); assay: Post-emergence herbicide glasshouse test; details: 250 g/ha, sprayed after 8 days cultivation, evaluated after 13 days
Protocol: as §1

[3] = tested on: Echinochloa crus-galli (ECHCG); assay: Post-emergence herbicide glasshouse test; details: 250 g/ha, sprayed after 8 days cultivation, evaluated after 13 days
Protocol: as §1

[4] = tested on: Ipomoea hederacea (IPOHE); assay: Post-emergence herbicide glasshouse test; details: 250 g/ha, sprayed after 8 days cultivation, evaluated after 13 days
Protocol: as §1

Setaria faberi (SETFA) [5] = assay: Post-emergence herbicide glasshouse test; details: 250 g/ha, sprayed after 8 days cultivation, evaluated after 13 days
Protocol: as §1

[6] = tested on: Abutilon theophrasti (ABUTH); assay: Pre-emergence herbicide glasshouse test; details: 250 g/ha, sprayed after one day cultivation, evaluated after 13 days
Protocol: as §1

[7] = tested on: Amaranthus retoflexus (AMARE); assay: Pre-emergence herbicide glasshouse test; details: 250 g/ha, sprayed after one day cultivation, evaluated after 13 days
Protocol: as §1

[8] = tested on: Echinochloa crus-galli (ECHCG); assay: Pre-emergence herbicide glasshouse test; details: 250 g/ha, sprayed after one day cultivation, evaluated after 13 days
Protocol: as §1

[9] = tested on: Ipomoea hederacea (IPOHE); assay: Pre-emergence herbicide glasshouse test; details: 250 g/ha, sprayed after one day cultivation, evaluated after 13 days
Protocol: as §1

Setaria faberi (SETFA) [10] = assay: Pre-emergence herbicide glasshouse test; details: 250 g/ha, sprayed after one day cultivation, evaluated after 13 days
Protocol: as §1

Structure (SMILES) | percentage damage caused to the plant, ABUTH [1] | percentage damage caused to the plant, AMARE [2] | percentage damage caused to the plant, ECHCG [3] | percentage damage caused to the plant, IPOHE [4] | percentage damage caused to the plant, SETFA (Setaria faberi (SETFA) [5]) | percentage damage caused to the plant, ABUTH [6] | percentage damage caused to the plant, AMARE [7] | percentage damage caused to the plant, ECHCG [8] | percentage damage caused to the plant, IPOHE [9] | percentage damage caused to the plant, SETFA (Setaria faberi (SETFA) [10])
FC(F)(F)c1cccc(Oc2cc(C(F)(F)F)nn2-c2ncc(Cl)cn2)n1 [Compound 1.004] | 4 (4=61-80%) | 5 (5=81-100%) | 4 (4=61-80%) | 3 (3=41-60%) | 4 (4=61-80%) | 4 (4=61-80%) | 5 (5=81-100%) | 5 (5=81-100%) | 2 (2=21-40%) | 5 (5=81-100%)
FC(F)(F)c1cc(Oc2ccnc(Cl)n2)n(-c2ncc(Cl)cn2)n1 [Compound 1.012] | – | 2 (2=21-40%) | 1 (1=0-20%) | 1 (1=0-20%) | 1 (1=0-20%) | – | 3 (3=41-60%) | 1 (1=0-20%) | 1 (1=0-20%) | 2 (2=21-40%)
N#Cc1cccc(Oc2cc(C(F)(F)F)nn2-c2ncc(Cl)cn2)n1 [Compound 1.023] | – | 4 (4=61-80%) | 4 (4=61-80%) | 3 (3=41-60%) | 4 (4=61-80%) | – | 5 (5=81-100%) | 4 (4=61-80%) | 4 (4=61-80%) | 5 (5=81-100%)
Cc1nccc(Oc2cc(C(F)(F)F)nn2-c2ncc(Cl)cn2)n1 [Compound 1.015] | – | 2 (2=21-40%) | 1 (1=0-20%) | 1 (1=0-20%) | 1 (1=0-20%) | – | 3 (3=41-60%) | 1 (1=0-20%) | 1 (1=0-20%) | 2 (2=21-40%)
FC(F)Oc1cnc(-n2nc(C(F)(F)F)cc2Oc2cccc(OC(F)F)n2)nc1 [Compound 1.028] | – | 5 (5=81-100%) | 5 (5=81-100%) | 3 (3=41-60%) | 5 (5=81-100%) | – | 5 (5=81-100%) | 5 (5=81-100%) | 1 (1=0-20%) | 5 (5=81-100%)
FC(F)c1cccc(Oc2cc(C(F)(F)F)nn2-c2ncc(Cl)cn2)n1 [Compound 1.003] | 3 (3=41-60%) | 5 (5=81-100%) | 4 (4=61-80%) | 4 (4=61-80%) | 4 (4=61-80%) | 1 (1=0-20%) | 5 (5=81-100%) | 4 (4=61-80%) | 2 (2=21-40%) | 2 (2=21-40%)
Fc1cnc(-n2nc(C(F)(F)F)cc2Oc2cccc(C(F)(F)F)n2)nc1 [Compound 1.024] | – | 2 (2=21-40%) | 1 (1=0-20%) | 1 (1=0-20%) | 1 (1=0-20%) | – | 5 (5=81-100%) | 1 (1=0-20%) | 1 (1=0-20%) | 1 (1=0-20%)
Fc1cc(Cl)cnc1-n1nc(C(F)(F)F)cc1Oc1cccc(OC(F)F)n1 [Compound 1.031] | – | 4 (4=61-80%) | 1 (1=0-20%) | 1 (1=0-20%) | 2 (2=21-40%) | – | – | 1 (1=0-20%) | 1 (1=0-20%) | 2 (2=21-40%)
FC(F)(F)c1cc(Oc2cccc(Cl)n2)n(-c2ncc(Cl)cn2)n1 [Compound 1.001] | 2 (2=21-40%) | 5 (5=81-100%) | 4 (4=61-80%) | 2 (2=21-40%) | 3 (3=41-60%) | 1 (1=0-20%) | 5 (5=81-100%) | 5 (5=81-100%) | 1 (1=0-20%) | 5 (5=81-100%)
N#Cc1ccc(-n2nc(C(F)(F)F)cc2Oc2cccc(OC(F)F)n2)nc1 [Compound 1.029] | – | 5 (5=81-100%) | 1 (1=0-20%) | 3 (3=41-60%) | 1 (1=0-20%) | – | 4 (4=61-80%) | 2 (2=21-40%) | 1 (1=0-20%) | 2 (2=21-40%)
FC(F)Oc1cccc(Oc2cc(C(F)(F)F)nn2-c2ncc(Cl)cn2)n1 [Compound 1.002] | 5 (5=81-100%) | 5 (5=81-100%) | 5 (5=81-100%) | 4 (4=61-80%) | 5 (5=81-100%) | 4 (4=61-80%) | 5 (5=81-100%) | 5 (5=81-100%) | 3 (3=41-60%) | 5 (5=81-100%)
Fc1cnc(-n2nc(C(F)(F)F)cc2Oc2cccc(OC(F)F)n2)nc1 [Compound 1.005, 2-[5-[[6-(difluoromethoxy)-2-pyridyl]oxy]-3-(trifluoromethyl)pyrazol-1-yl]-5-fluoro-pyrimidine] | 5 (5=81-100%) | 5 (5=81-100%) | 4 (4=61-80%) | 4 (4=61-80%) | 4 (4=61-80%) | 4 (4=61-80%) | 5 (5=81-100%) | 5 (5=81-100%) | 5 (5=81-100%) | 5 (5=81-100%)
COc1ccnc(-n2nc(C(F)(F)F)cc2Oc2cccc(OC(F)F)n2)n1 [Compound 1.026] | 1 (1=0-20%) | 3 (3=41-60%) | 1 (1=0-20%) | 1 (1=0-20%) | 1 (1=0-20%) | 2 (2=21-40%) | 4 (4=61-80%) | 1 (1=0-20%) | 1 (1=0-20%) | 1 (1=0-20%)
FC(F)(F)c1cc(Oc2ccnc(C(F)(F)F)n2)n(-c2ncc(Cl)cn2)n1 [Compound 1.011] | – | 4 (4=61-80%) | 4 (4=61-80%) | 1 (1=0-20%) | 4 (4=61-80%) | – | 5 (5=81-100%) | 4 (4=61-80%) | 1 (1=0-20%) | 5 (5=81-100%)
FC(F)Oc1cccc(Oc2cc(C(F)(F)F)nn2-c2ncccn2)n1 [Compound 1.027] | – | 4 (4=61-80%) | 1 (1=0-20%) | 2 (2=21-40%) | 1 (1=0-20%) | – | 3 (3=41-60%) | 1 (1=0-20%) | 2 (2=21-40%) | 1 (1=0-20%)
N#Cc1cc(Cl)cnc1-n1nc(C(F)(F)F)cc1Oc1cccc(OC(F)F)n1 [Compound 1.030] | – | 3 (3=41-60%) | 1 (1=0-20%) | 1 (1=0-20%) | 2 (2=21-40%) | – | 2 (2=21-40%) | 1 (1=0-20%) | 1 (1=0-20%) | 1 (1=0-20%)
